The record followed here is patent US7371748B2, “Benzothiazole derivatives” (Hoffman-La Roche Inc., priority 2003, dated 2008).

Series [1] addresses T1, human adenosine A2A receptor (Homo sapiens, UniProt P29274).
T1 construct: expressed in transfected cells; host or cells: CHO cells, Semliki Forest virus expression system; membrane preparation
As to the kind of experiment: [3H]-SCH-58261 binding assay, human adenosine A2A receptor. To be noted: human A2A receptor recombinantly expressed in CHO cell membranes; [3H]-SCH-58261 1 nM; Ki from IC50 by Cheng-Prussoff equation; read-out: Ha2 (pKi) (converted). The method, then:
Human Adenosine A2A Receptor
The human adenosine A2A receptor was recombinantly expressed in chinese hamster ovary (CHO) cells using the semliki forest virus expression system. Cells were harvested, washed twice by centrifugation, homogenized and again washed by centrifugation. The final washed membrane pellet was suspended in a Tris (50 mM) buffer containing 120 mM NaCl, 5 mM KCl, 2 mM CaCl2 and 10 mM MgCl2 (pH 7.4) (buffer A). The [^3H]-SCH-58261 (Dionisotti et al., […], Br J Pharmacol 121, 353; 1 nM) binding assay was carried out in 96-well plates in the presence of 2.5 μg of membrane protein, 0.5 mg of Ysi-poly-1-lysine SPA beads and 0.1 U adenosine deaminase in a final volume of 200 μl of buffer A. Non-specific binding was defined using xanthine amine congener (XAC; 2 μM). Compounds were tested at 10 concentrations from 10 μM-0.3 nM. All assays were conducted in duplicate and repeated at least two times. Assay plates were incubated for 1 hour at room temperature before centrifugation and then bound ligand determined using a Packard Topcount scintillation counter. IC50 values were calculated using a non-linear curve fitting program and Ki values calculated using the Cheng-Prussoff equation.

T1 sequence (P29274 whole entry): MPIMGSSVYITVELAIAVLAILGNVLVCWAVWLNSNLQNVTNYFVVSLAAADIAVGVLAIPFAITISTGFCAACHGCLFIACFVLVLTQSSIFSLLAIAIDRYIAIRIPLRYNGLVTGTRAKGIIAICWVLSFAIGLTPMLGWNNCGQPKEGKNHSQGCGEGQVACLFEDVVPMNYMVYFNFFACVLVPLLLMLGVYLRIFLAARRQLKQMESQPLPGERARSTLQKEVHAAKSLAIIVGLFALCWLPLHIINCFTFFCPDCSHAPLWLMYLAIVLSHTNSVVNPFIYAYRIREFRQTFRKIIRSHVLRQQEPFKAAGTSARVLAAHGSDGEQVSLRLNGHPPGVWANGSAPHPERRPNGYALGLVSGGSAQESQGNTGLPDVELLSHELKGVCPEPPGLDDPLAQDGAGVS

What is called melting point is the temperature, or range, at which the solid turns liquid. On to `COc1ccc(C2CCOCC2)c2sc(NC(=O)CC3CCOCC3)nc12` [Example 33, N-[4-Methoxy-7-(tetrahydro-pyran-4-yl)-benzothiazol-2-yl]-2-(tetrahydro-pyran-4-yl)-acetamide], for which the melting point was 218 to 220 °C. Moreover, in series [1], the Ki is 1.58 nM.
For the molecule `COc1ccc(C2CCOCC2)c2sc(NC(=O)N(C)[C@H]3CC[C@@H](O)CC3)nc12` [Example 22, cis-1-(4-Hydroxy-cyclohexyl)-3-[4-methoxy-7-(tetrahydro-pyran-4-yl)-benzothiazol-2-yl]-1-methyl-urea], the melting point lay in the range of 191 to 193 °C. For the same molecule, the Ki in series [1] was 2.51 nM.
As to `COc1ccc(C2CCOCC2)c2sc(NC(=O)N3CCC(CO)CC3)nc12` [Example 52, 4-Hydroxymethyl-piperidine-1-carboxylic acid [4-methoxy-7-(tetrahydro-pyran-4-yl)-benzothiazol-2-yl]-amide], the melting point fell in the range of 202 to 203.5 °C. Moreover, the Ki in series [1] is 1 nM.
In the case of `COc1ccc(C2CCOCC2)c2sc(NC(=O)N(C)[C@H]3CC[C@H](O)CC3)nc12` [Example 21, trans-1-(4-Hydroxy-cyclohexyl)-3-[4-methoxy-7-(tetrahydro-pyran-4-yl)-benzothiazol-2-yl]-1-methyl-urea], the melting point was 160 °C. Also, the Ki in series [1] is 2.51 nM.
